Experimental data: patent US12257287B2, “Glucagon-derived peptide and use thereof” (Tianjin Institute of Pharmaceutical Research Co., Ltd., priority 2018, dated 2025)
Values after ≈ are worked out from the molar mass of the structure shown. Marks after values point to notes of the source that are not given here. Numbered stars: 1 amine (or outer) side, 2 acyl side, 3 side chain; on linkers, the order of the positions; unused ones are H or OH. Square brackets hold non-standard residues; d marks the D form. Side chains are listed from the residue outwards. Peptide text beside a SMILES is read from it. * marks the point of attachment. C20 diacid = O=C(O)CCCCCCCCCCCCCCCCCCC(=O)*; C18 diacid = O=C(O)CCCCCCCCCCCCCCCCC(=O)*; γGlu = O=C(O)[C@H](CCC(=O)[*:2])N[*:1]; AEEA = NCCOCCOCC(=O)O; Aib = CC(C)(N)C(=O)O

Columns and labels:
[1] = Glucose tolerance test in glucose-loaded DIO mice; type: in vivo; set-up: AUC reduction rate (%), Table 6: concentration or dose not given beside the values; conditions: for glucose tolerance / blood glucose lowering (in words): conclusions on Tables 4 and 6
Procedure, shortened: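 DIO mice fasted 16 h received compound subcutaneously; 1 h later, glucose 1 g/kg was given intraperitoneally. Blood glucose measured at 0.5, 1 and 1.5 h; AUC compared with model control group to give blood glucose inhibition rate (%).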

[2] = Effect on body weight of DIO mice after 14 days' administration; type: in vivo, C57BL/6J mice; conditions: for body weight reduction (in words): 14 days, conclusions on Tables 3 and 5
Procedure, shortened: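 C57BL/6J mice on H10060 high-fat diet for 34 weeks (DIO; 45.0–52.0 g), 5 per group, dosed subcutaneously once daily for 14 days; controls received saline. Body weight change (%) = (initial − last-day weight)/initial weight; positive values mean loss.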

[3] = target: T1, human GLP-1 receptor (Homo sapiens, UniProt P43220); assay: GLP-1 receptor mediated cAMP production in vitro; type: cell-based; conditions: cells transfected with human GLP-1 receptor, 20 min at 37° C., read-out: GLP-1R (nM EC50)
T1 construct: expressed in transfected cells; host or cells: Chinese guinea pig lung cells [sic]
T1 sequence (P43220 24-463): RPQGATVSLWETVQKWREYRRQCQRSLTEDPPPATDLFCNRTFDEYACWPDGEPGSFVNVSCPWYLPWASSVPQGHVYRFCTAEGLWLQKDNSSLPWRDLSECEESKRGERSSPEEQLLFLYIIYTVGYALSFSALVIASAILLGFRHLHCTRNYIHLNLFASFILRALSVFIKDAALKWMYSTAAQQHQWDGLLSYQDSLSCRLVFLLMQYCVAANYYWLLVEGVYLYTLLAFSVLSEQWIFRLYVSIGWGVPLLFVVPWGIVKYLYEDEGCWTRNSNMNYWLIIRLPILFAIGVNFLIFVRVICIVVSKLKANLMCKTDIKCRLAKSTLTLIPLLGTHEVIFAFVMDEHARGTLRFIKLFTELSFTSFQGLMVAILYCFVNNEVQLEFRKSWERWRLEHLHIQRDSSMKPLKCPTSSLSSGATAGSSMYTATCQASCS
Excerpt: (§1) The medium was removed, the cells were lysed, and cAMP values were detected referring to the detection method described for the assay kit.

[4] = Short-term administration: food intake and body weight in DIO mice; type: in vivo; conditions: 30 nmol/kg once every 24 h, twice, − decrease; for Rate of change in food intake (%): at 48 hours vs day before administration; for Body weight change: at 48 hours
Procedure, shortened: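 DIO mice (mean body weight 52.5 g), 5 per group, dosed at 30 nmol/kg every 24 h for two doses, in 10 mM PBS pH 7.4; controls received solvent. Food intake and body weight at 48 h expressed as change rate versus the day before dosing.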

[5] = physchem; type: physicochemical
[6] = Accelerated chemical stability in injection solvent system (HPLC-UV); type: physicochemical; conditions: 14 days, phosphate buffer pH 7.3 with Tween 80 and phenol, main peak area vs day 0
Procedure, shortened: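 Compound dissolved in 10 mM pH 8.5 sodium hydrogen phosphate buffer, adjusted to pH 7.3, with Tween 80 and phenol added. Solutions stored 14 days at 10 °C and 37 °C; HPLC-UV main-peak area by normalisation compared against day 0.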

[7] = target: T2, GC receptor (Homo sapiens, UniProt P47871); assay: GC receptor mediated cAMP production in vitro (HEK293 cells transfected with GC receptor); type: cell-based; conditions: 20 min at 37° C., read-out: GCGR (nM EC50)
T2 construct: expressed in transfected cells; host or cells: HEK293 cells
T2 sequence (P47871 26-477): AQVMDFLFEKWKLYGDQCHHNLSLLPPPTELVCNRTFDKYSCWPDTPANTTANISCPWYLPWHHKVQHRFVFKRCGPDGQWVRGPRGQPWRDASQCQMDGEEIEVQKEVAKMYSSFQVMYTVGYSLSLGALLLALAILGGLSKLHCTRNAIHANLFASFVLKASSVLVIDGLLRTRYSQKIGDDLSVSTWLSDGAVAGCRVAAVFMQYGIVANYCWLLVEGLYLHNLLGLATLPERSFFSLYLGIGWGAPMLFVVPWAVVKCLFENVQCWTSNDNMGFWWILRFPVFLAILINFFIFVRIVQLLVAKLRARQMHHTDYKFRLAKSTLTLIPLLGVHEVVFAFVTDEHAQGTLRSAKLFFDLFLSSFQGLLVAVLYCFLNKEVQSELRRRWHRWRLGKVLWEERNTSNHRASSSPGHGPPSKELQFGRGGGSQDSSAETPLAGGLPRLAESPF
Excerpt: as §1

[8] = pH 7.5, Solubility, pH 7.5, 10 mM phosphate buffer
[9] = pH 7.5, Solubility, pH 7.5, 20 mM phosphate buffer
[10] = pH 8, Solubility, pH 8.0, 10 mM phosphate buffer
[11] = pH 8, Solubility, pH 8.0, 20 mM phosphate buffer
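Wherever Solubility is given: compound added at 2 mg per mL of phosphate buffer, with the dissolved amount determined in the supernatant.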

EC50 [3]	solubility [5, 8]	solubility [5, 9]	solubility [5, 10]	solubility [5, 11]	Change in purity % (10° C.) [6]	Change in purity % (37° C.) [6]	EC50 [7]	SMILES	AUC of blood glucose, Table 4 ([1]; DIO mice fasted 16 h, glucose 1 g/kg i.p. 1 h after s.c. administration, 0.5, 1, 1.5 h)	AUC reduction rate (%), Table 4 ([1]; blood glucose inhibition rate compared with model control group, DIO mice, glucose 1 g/kg i.p.)	body weight change rate, Table 3 ([2]; DIO mice, subcutaneous injection every day for 14 days, (initial−last)/initial, positive values indicate a decrease)	Rate of change in food intake (%) [4]	Body weight change [4]	AUC of blood glucose, Table 6 ([1]; Example 4, DIO mice under glucose load, methods as in Example 3)	AUC reduction rate (%), Table 6 ([1]; Example 4, compared with model control group, DIO mice under glucose load)	body weight change, Table 5 ([2]; Example 4, DIO mice, 14 days' administration, methods as in Example 3, positive values indicate a decrease)	glucose tolerance / blood glucose lowering (in words) ([1]; DIO mice)	body weight reduction (in words) ([2]; DIO mice)
0.051 nM	1820 µg/mL (≈ 437 µM)	1220 µg/mL (≈ 293 µM)	> 2000 µg/mL	> 2000 µg/mL	−0.9%	−3.7%	0.024 nM	CCCCCCCCCCCCCCCC(=O)N[C@@H](CCC(=O)N[C@@H](CCC(=O)NCCCC[C@H](NC(=O)[C@H](CC(=O)O)NC(=O)[C@H](CO)NC(=O)[C@@H](NC(=O)[C@H](Cc1ccccc1)NC(=O)[C@@H](NC(=O)CNC(=O)[C@H](CCC(N)=O)NC(=O)C(C)(C)NC(=O)[C@@H](N)Cc1c[nH]cn1)[C@@H](C)O)[C@@H](C)O)C(=O)N[C@@H](CO)C(=O)N[C@@H](CCCCN)C(=O)N[C@@H](Cc1ccc(O)cc1)C(=O)N[C@@H](CC(C)C)C(=O)N[C@@H](CCC(=O)O)C(=O)N[C@@H](CCC(=O)O)C(=O)N[C@@H](CCCNC(=N)N)C(=O)N[C@@H](C)C(=O)N[C@@H](C)C(=O)N[C@@H](CCCCN)C(=O)N[C@@H](CCC(=O)O)C(=O)N[C@@H](Cc1ccccc1)C(=O)N[C@H](C(=O)N[C@@H](C)C(=O)N[C@@H](Cc1c[nH]c2ccccc12)C(=O)N[C@@H](CC(C)C)C(=O)N[C@@H](CCC(=O)O)C(=O)N[C@@H](C)C(=O)NCC(=O)NCC(=O)N1CCC[C@H]1C(=O)N[C@@H](CO)C(=O)N[C@@H](CO)C(=O)NCC(N)=O)C(C)C)C(=O)O)C(=O)O [Compound 4] (HELM PEPTIDE1{H.[Aib].Q.G.T.F.T.S.D.K.S.K.Y.L.E.E.R.A.A.K.E.F.V.A.W.L.E.A.G.G.P.S.S.G.[am]}|PEPTIDE2{[CCCCCCCCCCCCCCCC(=O)[*:2]].[gGlu].[gGlu]}$PEPTIDE1,PEPTIDE2,10:R3-3:R2$$$V2.0; N-terminus assumed)	9.02 ± 1.74 mmol·h/L	57.4** %	26.0%	−42%	-1.5 g					
0.439 nM	1390 µg/mL (≈ 321 µM)	980 µg/mL (≈ 226 µM)	> 2000 µg/mL	1620 µg/mL (≈ 374 µM)			0.052 nM	CC[C@H](C)[C@H](NC(=O)[C@H](Cc1ccccc1)NC(=O)[C@H](CCC(=O)O)NC(=O)[C@H](CCCCN)NC(=O)[C@H](C)NC(=O)[C@H](C)NC(=O)[C@H](CCCNC(=N)N)NC(=O)[C@H](CCC(=O)O)NC(=O)[C@H](CCC(=O)O)NC(=O)[C@H](CC(C)C)NC(=O)[C@H](Cc1ccc(O)cc1)NC(=O)[C@H](CCCCN)NC(=O)[C@H](CO)NC(=O)[C@H](CCCCNC(=O)COCCOCCNC(=O)COCCOCCNC(=O)CC[C@H](NC(=O)CCCCCCCCCCCCCCCCC(=O)O)C(=O)O)NC(=O)[C@H](CC(=O)O)NC(=O)[C@H](CO)NC(=O)[C@@H](NC(=O)[C@H](Cc1ccccc1)NC(=O)[C@@H](NC(=O)CNC(=O)[C@H](CCC(N)=O)NC(=O)C(C)(C)NC(=O)[C@@H](N)Cc1c[nH]cn1)[C@@H](C)O)[C@@H](C)O)C(=O)N[C@@H](C)C(=O)N[C@@H](Cc1c[nH]c2ccccc12)C(=O)N[C@@H](CC(C)C)C(=O)N[C@@H](CCC(=O)O)C(=O)NCC(=O)NCC(=O)N1CCC[C@H]1C(=O)N[C@@H](CO)C(=O)N[C@@H](CO)C(=O)NCC(N)=O [Compound 6] (H-H[Aib]QGTFTSDK([AEEA-AEEA-γGlu-C18 diacid])SKYLEERAAKEFIAWLEGGPSSG-NH2; N-terminus assumed)						8.99 ± 1.46 mmol·h/L	54.7** %	28.32		
0.044 nM	1840 µg/mL (≈ 416 µM)	1170 µg/mL (≈ 264 µM)	> 2000 µg/mL	> 2000 µg/mL	−0.6%	−3.1%	0.036 nM	CC[C@H](C)[C@H](NC(=O)[C@H](Cc1ccccc1)NC(=O)[C@H](CCC(=O)O)NC(=O)[C@H](CCCCN)NC(=O)[C@H](C)NC(=O)[C@H](C)NC(=O)[C@H](CCCNC(=N)N)NC(=O)[C@H](CCC(=O)O)NC(=O)[C@H](CCC(=O)O)NC(=O)[C@H](CC(C)C)NC(=O)[C@H](Cc1ccc(O)cc1)NC(=O)[C@H](CCCCN)NC(=O)[C@H](CO)NC(=O)[C@H](CCCCNC(=O)COCCOCCNC(=O)COCCOCCNC(=O)CC[C@H](NC(=O)CCCCCCCCCCCCCCCCCCC(=O)O)C(=O)O)NC(=O)[C@H](CC(=O)O)NC(=O)[C@H](CO)NC(=O)[C@@H](NC(=O)[C@H](Cc1ccccc1)NC(=O)[C@@H](NC(=O)CNC(=O)[C@H](CCC(N)=O)NC(=O)C(C)(C)NC(=O)[C@@H](N)Cc1c[nH]cn1)[C@@H](C)O)[C@@H](C)O)C(=O)N[C@@H](C)C(=O)N[C@@H](Cc1c[nH]c2ccccc12)C(=O)N[C@@H](CC(C)C)C(=O)N[C@@H](CCC(=O)O)C(=O)N[C@@H](C)C(=O)NCC(=O)NCC(=O)N1CCC[C@H]1C(=O)N[C@@H](CO)C(=O)N[C@@H](CO)C(=O)NCC(N)=O [Compound 35] (H-H[Aib]QGTFTSDK([AEEA-AEEA-γGlu-C20 diacid])SKYLEERAAKEFIAWLEAGGPSSG-NH2; N-terminus assumed)				−59%	-3.2 g				significantly improved glucose tolerance	significantly reduced body weight
0.219 nM	1260 µg/mL (≈ 278 µM)	1080 µg/mL (≈ 238 µM)	1920 µg/mL (≈ 423 µM)	1180 µg/mL (≈ 260 µM)			0.274 nM	CC(C)C[C@H](NC(=O)[C@H](Cc1c[nH]c2ccccc12)NC(=O)[C@H](CCC(=O)O)NC(=O)[C@@H](NC(=O)[C@H](Cc1ccccc1)NC(=O)[C@H](CCC(=O)O)NC(=O)[C@H](CCCCNC(=O)COCCOCCNC(=O)COCCOCCNC(=O)CC[C@H](NC(=O)CCCCCCCCCCCCCCCCC(=O)O)C(=O)O)NC(=O)[C@H](C)NC(=O)[C@H](CCCNC(=N)N)NC(=O)[C@H](CCCCN)NC(=O)[C@H](CCC(=O)O)NC(=O)[C@H](CCC(=O)O)NC(=O)[C@H](CC(C)C)NC(=O)[C@H](Cc1ccc(O)cc1)NC(=O)[C@H](CCCCN)NC(=O)[C@H](CO)NC(=O)[C@H](Cc1ccc(O)cc1)NC(=O)[C@H](CC(=O)O)NC(=O)[C@H](CO)NC(=O)[C@@H](NC(=O)[C@H](Cc1ccccc1)NC(=O)[C@@H](NC(=O)CNC(=O)[C@H](CCC(N)=O)NC(=O)C(C)(C)NC(=O)[C@@H](N)Cc1c[nH]cn1)[C@@H](C)O)[C@@H](C)O)C(C)C)C(=O)N[C@@H](CCC(=O)O)C(=O)N[C@@H](C)C(=O)NCC(=O)NCC(=O)N1CCC[C@H]1C(=O)N[C@@H](CO)C(=O)N[C@@H](CO)C(=O)NCC(N)=O [Compound 54] (H-H[Aib]QGTFTSDYSKYLEEKRAK([AEEA-AEEA-γGlu-C18 diacid])EFVEWLEAGGPSSG-NH2; N-terminus assumed)				−35%	-0.9 g				significantly improved glucose tolerance	significantly reduced body weight
